From ChEMBL document CHEMBL5346903, “Discovery of novel and bioavailable histone deacetylases and cyclin-dependent kinases dual inhibitor to impair the stemness of leukemia cells” (Eur J Med Chem, 2023)

Tests used:
[1] = target: Cyclin-dependent kinase 9 (Homo sapiens, UniProt P50750); experiment: Inhibition of CDK9 (unknown origin) preincubated for 20 mins followed by [gamma-33P]ATP addition measured after 120 mins in presence of ATP by Hot-SpotSM kinase assay
[2] = tested on: U-937; experiment: Antiproliferative activity against human U-937 cells incubated for 72 hrs by CCK8 assay; type: functional, cell-based; conditions: U-937, 72 h
[3] = tested on: HL-60; experiment: Antiproliferative activity against human HL-60 cells incubated for 72 hrs by CCK8 assay; type: functional, cell-based; conditions: HL-60, 72 h
[4] = Antiproliferative activity against human SKNO-1 cells incubated for 72 hrs by CCK8 assay; type: functional, cell-based; conditions: SKNO-1, 72 h
[5] = tested on: Kasumi 1; experiment: Antiproliferative activity against human Kasumi 1 cells incubated for 72 hrs by CCK8 assay; type: functional, cell-based; conditions: Kasumi 1, 72 h

Chain of Cyclin-dependent kinase 9 (P50750 whole entry): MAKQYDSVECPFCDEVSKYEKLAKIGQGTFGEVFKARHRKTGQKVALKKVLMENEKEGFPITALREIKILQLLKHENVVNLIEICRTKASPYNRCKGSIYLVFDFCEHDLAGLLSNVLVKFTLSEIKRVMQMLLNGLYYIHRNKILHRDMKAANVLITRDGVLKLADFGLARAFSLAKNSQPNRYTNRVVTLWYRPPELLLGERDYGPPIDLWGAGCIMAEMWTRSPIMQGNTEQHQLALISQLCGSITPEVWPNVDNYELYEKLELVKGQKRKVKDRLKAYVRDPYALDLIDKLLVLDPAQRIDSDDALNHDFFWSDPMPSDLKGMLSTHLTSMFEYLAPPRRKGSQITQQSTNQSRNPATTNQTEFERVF

IC50 [1] [µM] | IC50 [2] [µM] | IC50 [3] [µM] | SMILES | IC50 [4] [µM] | IC50 [5] [µM]
< 0.1 | 1.61 | 1.24 | O=C(CCCN1CCC(NC(=O)c2n[nH]cc2NC(=O)c2c(Cl)cccc2Cl)CC1)NO | 2.23 | 3.52
< 0.1 | > 10 | 4.45 | O=C(CCN1CCC(NC(=O)c2n[nH]cc2NC(=O)c2c(F)cccc2F)CC1)NO | 9.28 | 4.8
< 0.1 | > 10 | 10 | O=C(CCNC(=O)c1n[nH]cc1NC(=O)c1c(Cl)cccc1Cl)NO | > 10 | 3.87
< 0.1 | > 10 | 1.81 | O=C(CCCCCN1CCC(NC(=O)c2n[nH]cc2NC(=O)c2c(F)cccc2F)CC1)NO | > 10 | > 10
< 0.1 | > 10 | > 10 | Cc1cc(N)c(NC(=O)c2ccc(NC(=O)c3n[nH]cc3NC(=O)c3c(F)cccc3F)cc2)cc1C | 6.89 | > 10
< 0.1 | > 10 | > 10 | O=C(CCCNC(=O)c1n[nH]cc1NC(=O)c1c(Cl)cccc1Cl)NO | > 10 | > 10
< 0.1 | 0.91 | 1.54 | O=C(CCN1CCC(NC(=O)c2n[nH]cc2NC(=O)c2c(Cl)cccc2Cl)CC1)NO | 1.67 | 1.38
< 0.1 | 8.52 | > 10 | O=C(CCCCNC(=O)c1ccc(NC(=O)c2n[nH]cc2NC(=O)c2c(Cl)cccc2Cl)cc1)NO | > 10 | > 10
< 0.1 | 1.84 | 1.75 | O=C(CCCCCN1CCC(NC(=O)c2n[nH]cc2NC(=O)c2c(Cl)cccc2Cl)CC1)NO | 3.02 | 6.19
< 0.1 | 5.6 | > 10 | Nc1ccccc1NC(=O)c1ccc(NC(=O)c2n[nH]cc2NC(=O)c2c(F)cccc2F)cc1 | 2.65 | 3.1
< 0.1 | > 10 | > 10 | Nc1cc(Br)c(Br)cc1NC(=O)c1ccc(NC(=O)c2n[nH]cc2NC(=O)c2c(F)cccc2F)cc1 | > 10 | > 10
< 0.1 | > 10 | > 10 | O=C(CNC(=O)c1n[nH]cc1NC(=O)c1c(Cl)cccc1Cl)NO | > 10 | > 10
< 0.1 | 9.13 | 6.86 | Nc1cc(Br)c(Br)cc1NC(=O)c1ccc(NC(=O)c2n[nH]cc2NC(=O)c2c(Cl)cccc2Cl)cc1 | 4.56 | 6.92
< 0.1 | 5.92 | 9.76 | Nc1cc(Cl)c(Cl)cc1NC(=O)c1ccc(NC(=O)c2n[nH]cc2NC(=O)c2c(Cl)cccc2Cl)cc1 | 5.54 | 8.42
< 0.1 | > 10 | > 10 | O=C(CCCCNC(=O)c1n[nH]cc1NC(=O)c1c(Cl)cccc1Cl)NO | > 10 | > 10
< 0.1 | 7.34 | 1.77 | O=C(CCCCN1CCC(NC(=O)c2n[nH]cc2NC(=O)c2c(F)cccc2F)CC1)NO | 6.53 | 6.44
< 0.1 | > 10 | > 10 | O=C(CNC(=O)c1ccc(NC(=O)c2n[nH]cc2NC(=O)c2c(F)cccc2F)cc1)NO | > 10 | > 10
< 0.1 | > 10 | > 10 | O=C(CCCCNC(=O)c1ccc(NC(=O)c2n[nH]cc2NC(=O)c2c(F)cccc2F)cc1)NO | > 10 | > 10
< 0.1 | > 10 | > 10 | O=C(CCCCCNC(=O)c1ccc(NC(=O)c2n[nH]cc2NC(=O)c2c(Cl)cccc2Cl)cc1)NO | > 10 | > 10
